{"source": "patent US11952603B2", "about": "“Method for reducing or inactivating viral and microbial content in the processes for the manufacture of pancreatin” (SCIENTIFIC PROTEIN LABORATORIES, LLC, priority 2015, dated 2024)", "key": {"[1]": {"tested_on": "Porcine circovirus type 2 (PCV 2)", "assay": "Infectious PCV-2 titer by cell based in vitro assay using PK-13 cells (Large Volume Plating, interference assay)", "settings": "500 and 2000 ppm, endogenous virus"}, "vegetative bacteria": {"tested_on": "vegetative bacteria", "settings": "within 1 min at 25° C., 1.3 mmol/L of PAA; cited from earlier work"}, "[2]": {"tested_on": "Encephalomycarditis Virus (EMC)", "type": "cell-based, Encephalomyocarditis virus", "settings": "10,000 ppm PAA"}, "viruses": {"tested_on": "viruses", "settings": "cited from earlier work"}, "virus": {"tested_on": "virus", "assay": "Transmission electron microscopy of gland tissue and pancreatin powder for virus", "settings": "20,000 ppm PAA for 30 minutes", "protocol": "Electron Microscopic Study: Referring to FIGS. 4A-4D, transmission electron microscopy (TEM) and scanning electron microscopy (SEM) were performed to visualize the presence of bacteria and viruses on surface of pancreas gland tissue and pancreatin powder treated with differing concentration of PAA and were compared to non-treated (control) samples.\nPancreas gland tissues treated with PAA and untreated samples as well as resulting pancreatin powder produced with PAA treatment were analyzed with TEM and SEM. For SEM samples were coated with an ultrathin coating of electrically conducting material, deposited on the sample by low-vacuum sputter coating evaporation. A conductive material in current coating used was gold to observe bacteria and viruses. A ZEISS LEO-1530 DSM scanning electron microscope was used to produce the images of FIGS. 4A and 4B. […] (scale bar is 2 μm). […] Viruses are very small in size (15 to 100 nm) and were not possible to observe in SEM. For TEM the pancreas gland tissue and pancreatin powder sample treated with 20,000 ppm PAA for 30 minutes and control samples were stained with 2% uranyl acetate (aq). A Model H-7600 HITACHI transmission electron microscope, Version 3.01, was used to produces the images of FIGS. 4C and 4D. Three TEM slides of each treatment were observed. Each TEM slide had 400 grids to observe. A minimum of 10-15 grids per slide were observed."}, "[3]": {"tested_on": "Gram-positive and Gram negative bacteria, fungi and yeasts", "settings": "at concentrations of <100 ppm; cited from earlier work"}, "[4]": {"tested_on": "Murine Minute Virus (MMV)", "assay": "Viral clearance of spiked MMV on PAA-treated glands, TCID50 endpoint assay", "type": "cell-based", "settings": "10,000 ppm PAA, 30 min sample vs Recovery Control 0 minute"}, "[5]": {"tested_on": "aerobic microorganisms (TAMC)", "assay": "Total Aerobic Microbial Count (TAMC) of porcine pancreas glands after PAA treatment", "protocol": "For the preparation of pancreatin, 3 kg thawed whole porcine pancreas glands and 3 kg of porcine pancreas glands cut into approximately 2-inch strips were submerged in two different concentrations of PAA, 500 ppm and 2000 ppm for 10 and 15 minutes at room temperature (18-22° C.). Treated glands were rinsed with process water and placed into a sterile sample bag and stored at −20° C. for freezing not less than 12 hours. A total of 6 samples were tested per run. The preparation was executed 2 times. […] Whole gland (A)—500 ppm; • 2. Whole gland (B)—2000 ppm; • 3. Strip gland (A)—500 ppm; • 4. Strip gland (B)—2000 ppm; • 5. Whole gland (C)—No treatment-Control; • 6. Strip gland (C)—No treatment-Control. For all result see Tables 1 and 2.\nThe strip glands remained consistent.\nFor the preparation of pancreatin, 3 kg thawed whole glands and 3 kg of milled gland were submerged in two different concentrations of PAA, 500 ppm and 2000 ppm for 10 and 15 minutes at room temperature (18-22° C.). Treated glands were rinsed with purified water and placed into a sterile sample bag and stored at −20° C. for freezing not less than 12 hours. A total of 6 samples were tested per run. The preparation was executed 2 times. Milled glands were difficult to process due to slurry being formed after PAA treatment. […] Whole gland (A)—500 ppm; • 2. Whole gland (B)—2000 ppm; • 3. Milled gland (A)—500 ppm; • 4. Milled gland (B)—2000 ppm; • 5. Whole gland (C)—No treatment-Control; • 6. Milled gland (C)—No treatment-Control. For all results see table 3 and 4.\nThe TAMC results for both the whole glands and milled before PAA treatments were similar with 1400 and 1100 CFU/g. After 500 ppm and 2000 ppm PAA treatment, the TAMC results for the treated whole glands were exactly the same, 10 CFU/g. The milled glands were not tested after PAA treatment. See results in table 3."}, "[6]": {"settings": "Strip Gland, Run # 1, Example 1"}, "[7]": {"settings": "Whole Gland, Run # 1, Example 1"}, "[8]": {"settings": "Whole Gland, Run # 2, Example 1"}}, "note": "Where two headings read alike, the source gives them in different places."}
{"smiles": "CC(=O)OO", "note": "[PAA, Peracetic acid]", "values": [{"measurement": "effect of PAA surface treatment in PCV-2 infectivity test", "setting": "[1]", "result": "no discernable effect"}, {"measurement": "reduction factor in the number of vegetative bacteria", "setting": "vegetative bacteria", "result": "10^6"}, {"measurement": "EMC reduction factor", "setting": "[2]; at 15 minutes", "result": "about 1.75 log10"}, {"measurement": "EMC reduction factor", "setting": "[2]; calculated using the 30 min sample", "result": "about 0.8 log10"}, {"measurement": "dosage range for viruses", "setting": "viruses", "result": "100-40,000 ppm"}, {"measurement": "virus in pancreas gland tissue (TEM)", "setting": "virus", "result": "No virus was observed"}, {"measurement": "time to inactivate", "setting": "[3]", "result": "less than 5 minutes"}, {"measurement": "MMV reduction factor", "setting": "[4]", "result": "3.0±0.9", "unit": "Log10"}, {"measurement": "TAMC After Treatment at 500 ppm", "setting": "[5]; [6]", "result": 130, "unit": "CFU/g"}, {"measurement": "TAMC After Treatment at 2000 ppm", "setting": "[5]; [6]", "result": 45, "unit": "CFU/g"}, {"measurement": "TAMC After 500 ppm PAA Treatment", "setting": "[5]; Whole Gland, Example 2", "result": 10, "unit": "CFU/g"}, {"measurement": "TAMC After 2000 ppm PAA Treatment", "setting": "[5]; Whole Gland, Example 2", "result": 10, "unit": "CFU/g"}, {"measurement": "TAMC After Treatment at 500 ppm", "setting": "[5]; [7]", "result": 90, "unit": "CFU/g"}, {"measurement": "TAMC After Treatment at 2000 ppm", "setting": "[5]; [7]", "result": 50, "unit": "CFU/g"}, {"measurement": "TAMC After Treatment at 500 ppm", "setting": "[5]; [8]", "result": 30, "unit": "CFU/g"}, {"measurement": "TAMC After Treatment at 2000 ppm", "setting": "[5]; [8]", "result": 10, "unit": "CFU/g"}]}
